Measurements as given in doi:10.1101/2025.07.03.663083, “TMC1 and TMC2 are cholesterol-dependent scramblases that regulate membrane homeostasis in auditory hair cells” (bioRxiv, 2025).

Assays:
Test in all cases: proteoliposome scramblase assay, dithionite and BSA back-extraction of NBD fluorescence
Format in all cases: functional
FL CmTMC1 = target: T1, FL CmTMC1 (Chelonia mydas, UniProt Z9P3M8BL59); settings: labelled compound; POPC/POPE/POPS 2:1:1 with 10% cholesterol, pH 7.4, 25 °C; lipid translocation, no headgroup specificity
T1 construct: full length, 1-955; His-GFP tag; Sf9 (baculovirus); reconstituted in liposomes
T1 sequence (Z9P3M8BL59 1-955): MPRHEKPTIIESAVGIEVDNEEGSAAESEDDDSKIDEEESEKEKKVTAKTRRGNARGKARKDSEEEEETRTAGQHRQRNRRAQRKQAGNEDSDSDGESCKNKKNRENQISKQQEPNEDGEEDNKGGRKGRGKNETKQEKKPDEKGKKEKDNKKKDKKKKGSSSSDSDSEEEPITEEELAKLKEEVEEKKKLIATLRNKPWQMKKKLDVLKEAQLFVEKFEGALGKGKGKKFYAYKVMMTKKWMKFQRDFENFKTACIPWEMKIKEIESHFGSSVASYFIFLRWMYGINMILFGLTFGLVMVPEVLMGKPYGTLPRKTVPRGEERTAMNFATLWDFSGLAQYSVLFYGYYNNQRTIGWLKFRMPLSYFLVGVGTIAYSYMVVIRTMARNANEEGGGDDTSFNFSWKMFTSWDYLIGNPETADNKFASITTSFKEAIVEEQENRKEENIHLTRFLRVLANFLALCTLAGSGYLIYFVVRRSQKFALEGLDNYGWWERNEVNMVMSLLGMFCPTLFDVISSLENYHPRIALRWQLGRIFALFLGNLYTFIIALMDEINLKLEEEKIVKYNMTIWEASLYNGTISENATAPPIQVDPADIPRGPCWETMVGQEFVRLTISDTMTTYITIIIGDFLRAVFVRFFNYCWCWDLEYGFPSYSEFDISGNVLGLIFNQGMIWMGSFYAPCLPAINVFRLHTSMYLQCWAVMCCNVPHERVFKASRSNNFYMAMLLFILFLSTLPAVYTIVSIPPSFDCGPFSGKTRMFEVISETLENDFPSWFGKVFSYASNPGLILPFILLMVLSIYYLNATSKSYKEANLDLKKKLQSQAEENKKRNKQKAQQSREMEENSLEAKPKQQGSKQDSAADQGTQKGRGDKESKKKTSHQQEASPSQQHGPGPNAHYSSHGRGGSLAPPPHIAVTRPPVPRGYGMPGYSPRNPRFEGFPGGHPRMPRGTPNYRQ

CmTMC1 (truncated) = target: T2, CmTMC1 (truncated) (Chelonia mydas, UniProt Z9P3M8BL59); settings: labelled compound; POPC/POPE/POPS 2:1:1 with 10% cholesterol, pH 7.4, 25 °C; lipid translocation, no headgroup specificity
T2 construct: transmembrane core without N- and C-terminal domains; His-GFP tag kept; Sf9 (baculovirus); purified in DDM/CHS, reconstituted in liposomes
T2 sequence (Z9P3M8BL59 230-828): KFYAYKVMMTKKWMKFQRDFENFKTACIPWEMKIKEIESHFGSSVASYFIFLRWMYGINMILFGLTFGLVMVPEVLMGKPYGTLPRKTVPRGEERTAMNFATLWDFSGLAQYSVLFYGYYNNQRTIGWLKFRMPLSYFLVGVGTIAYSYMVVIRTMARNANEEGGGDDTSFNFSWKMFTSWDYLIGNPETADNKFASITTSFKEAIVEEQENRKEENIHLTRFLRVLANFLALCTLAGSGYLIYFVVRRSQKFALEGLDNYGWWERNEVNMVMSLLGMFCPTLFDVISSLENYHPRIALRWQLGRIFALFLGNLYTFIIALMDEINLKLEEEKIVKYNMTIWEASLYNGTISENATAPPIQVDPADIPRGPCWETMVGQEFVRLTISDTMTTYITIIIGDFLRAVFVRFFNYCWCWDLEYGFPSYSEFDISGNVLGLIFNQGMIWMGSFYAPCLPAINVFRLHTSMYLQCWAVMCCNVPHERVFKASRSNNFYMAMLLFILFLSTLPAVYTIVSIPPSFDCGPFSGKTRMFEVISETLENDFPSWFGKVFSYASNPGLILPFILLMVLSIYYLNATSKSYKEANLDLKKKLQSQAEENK

FL MuTMC2 = target: T3, FL MuTMC2 (Melopsittacus undulatus, UniProt Z9DQS5U608); settings: labelled compound; POPC/POPE/POPS […] with […] cholesterol, pH […] °C; lipid translocation, no headgroup specificity
T3 construct: full length, 1-928; His-GFP tag; Sf9 (baculovirus); reconstituted in liposomes
T3 sequence (Z9DQS5U608 1-928): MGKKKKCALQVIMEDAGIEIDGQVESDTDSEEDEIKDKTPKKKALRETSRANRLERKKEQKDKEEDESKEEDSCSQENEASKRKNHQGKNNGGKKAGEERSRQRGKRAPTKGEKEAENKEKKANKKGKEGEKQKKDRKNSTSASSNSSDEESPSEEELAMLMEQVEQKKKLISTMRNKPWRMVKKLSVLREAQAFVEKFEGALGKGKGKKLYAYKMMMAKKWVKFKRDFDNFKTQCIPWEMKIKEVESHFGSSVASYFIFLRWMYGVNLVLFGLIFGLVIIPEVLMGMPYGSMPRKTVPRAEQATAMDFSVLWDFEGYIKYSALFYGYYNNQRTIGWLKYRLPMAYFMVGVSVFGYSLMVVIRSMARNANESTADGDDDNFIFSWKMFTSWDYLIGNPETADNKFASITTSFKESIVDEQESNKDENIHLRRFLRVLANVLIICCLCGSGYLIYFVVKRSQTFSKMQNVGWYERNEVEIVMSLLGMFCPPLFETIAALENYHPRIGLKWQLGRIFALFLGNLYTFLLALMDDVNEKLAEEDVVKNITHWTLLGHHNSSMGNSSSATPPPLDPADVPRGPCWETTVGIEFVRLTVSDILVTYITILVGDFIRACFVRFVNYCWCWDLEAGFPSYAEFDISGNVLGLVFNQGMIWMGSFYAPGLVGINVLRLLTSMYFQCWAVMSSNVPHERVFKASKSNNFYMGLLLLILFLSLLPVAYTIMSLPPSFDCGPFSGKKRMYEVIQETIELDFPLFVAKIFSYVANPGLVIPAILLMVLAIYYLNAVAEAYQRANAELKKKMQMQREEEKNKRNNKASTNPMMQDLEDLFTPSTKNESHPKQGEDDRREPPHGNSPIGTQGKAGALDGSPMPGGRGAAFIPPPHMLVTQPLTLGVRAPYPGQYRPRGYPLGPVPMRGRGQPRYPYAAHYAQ

MuTMC2 (truncated) = target: T4, MuTMC2 (truncated) (Melopsittacus undulatus, UniProt Z9DQS5U608); settings: labelled compound; POPC/POPE/POPS […] with […] cholesterol, pH […] °C; lipid translocation, no headgroup specificity
T4 construct: transmembrane core without N- and C-terminal domains; His-GFP tag kept; Sf9 (baculovirus); purified in DDM/CHS, reconstituted in liposomes
T4 sequence (Z9DQS5U608 211-807): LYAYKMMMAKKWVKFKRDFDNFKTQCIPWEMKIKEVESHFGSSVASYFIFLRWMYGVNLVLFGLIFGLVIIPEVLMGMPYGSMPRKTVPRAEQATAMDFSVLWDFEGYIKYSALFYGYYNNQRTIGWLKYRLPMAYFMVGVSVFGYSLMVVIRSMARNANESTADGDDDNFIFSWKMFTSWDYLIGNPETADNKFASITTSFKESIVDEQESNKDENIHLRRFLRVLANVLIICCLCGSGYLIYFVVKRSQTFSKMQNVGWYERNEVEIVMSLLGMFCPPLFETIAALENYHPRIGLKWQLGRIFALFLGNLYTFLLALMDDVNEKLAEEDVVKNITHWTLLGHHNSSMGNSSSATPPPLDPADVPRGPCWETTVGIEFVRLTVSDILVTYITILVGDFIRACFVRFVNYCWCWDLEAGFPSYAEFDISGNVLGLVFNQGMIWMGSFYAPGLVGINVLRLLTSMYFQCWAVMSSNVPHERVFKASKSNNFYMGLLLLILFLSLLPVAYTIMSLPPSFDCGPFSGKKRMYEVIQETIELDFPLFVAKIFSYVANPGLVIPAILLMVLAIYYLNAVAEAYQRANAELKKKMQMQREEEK

In the case of CCCCCCCCCCCCCC(=O)OC[C@H](COP(=O)(O)OCCN)OC(=O)CCCCCNc1ccc([N+](=O)[O-])c2nonc12 [NBD-PE, 1-myristoyl-2-sn-glycero-3-phosphoethanolamine], the “proteoliposome scramblase assay, dithionite and BSA back-extraction of NBD fluor” value (“proteoliposome scramblase assay” for short) (FL CmTMC1) is reported as “no differences in PLS activity between truncated and FL CmTMC1 and MuTMC2”, the “proteoliposome scramblase assay” value (CmTMC1 (truncated)) is reported as “due to scrambling of the fluorescent NBD-PE lipids by the TMC proteins” and the “proteoliposome scramblase assay” value (FL MuTMC2) is reported as “no differences in PLS activity between truncated and FL CmTMC1 and MuTMC2”. For the same compound, the “proteoliposome scramblase assay” value (MuTMC2 (truncated)) was “due to scrambling of the fluorescent NBD-PE lipids by the TMC proteins”.
